These results are taken from patent EP0359062B1, “Antibiotic GE 2270” (priority 1988, dated 1990).

The subject of the assay is Enterococcus faecalis strain L 149. The assay is described as follows: Bactericidal activity, time-kill curves. The class given is cell-based. The conditions noted are these: 8 mg/I, in 48 h; inoculum 1.4 x 10^7 CFU/ml. As for the experimental part:
Time-kill curves were run in 10 ml of Todd-Hewitt broth in 100 ml Erlenmeyer flasks, incubated at 37°C without agitation. A logarithmically growing culture of Enterococcus faecalis strain L 149 was inoculated at 1.4 x 10^7 CFU/ml.
The reference antibiotic (teicoplanin, 8 mg/I) killed 99% of the infecting bacteria in 48 h, while antibiotic GE 2270 factor A (0.13 mg/I) killed 99.8% of the bacteria within 2 h and 99.99% within 48 h at this dose or within 24 h at 4 mg/I.

teicoplanin: the killed bacteria came to 99%.
